Test results taken from US7618953B2, “Amorphous forms of risedronate monosodium” (Zentiva, a.s., priority 2004, dated 2009).
Counter-ions that a name gives are not always drawn.

What was measured:
[1] = format: physicochemical; conditions: for time until a transparent solution was formed: 0.796 mmol in 100 ml stirred aqueous hydrochloric acid, pH 1.1, 40° C.
Description: Dissolution of Sodium Risedronate in Diluted Hydrochloric Acid
a) 0.273 g (0.796 mmol) of sodium risedronate pentahemihydrate (crystalline form A) according to WO 01/56983, having the water content 12.5%, was introduced into 100 ml of stirred aqueous solution of hydrochloric acid at pH 1.1 and temperature of 40° C. Within 30 seconds a transparent solution was formed.
b) 0.250 g (0,796 mmol) of semi-crystalline sodium risedronate according to Example 2 above, having the water content 3%, was introduced into 100 ml of stirred aqueous solution of hydrochloric acid at pH 1.1 and temperature of 40° C. Within less than 30 seconds a quite transparent solution was formed.

[2] = 0.200 g suspended in 2 ml water at 22° C., water added dropwise at 0.2 ml/min until transparent solution
[3] = Water content after storage on the open air; format: physicochemical; conditions: after one month storage on the open air at laboratory temperature; 1.7% of water when prepared
Description: 10 g of crystalline form of risedronate pentahydrate (according to WO 2004/037252) was dried at 110° C. for 20 hours. 8.2 g of the semi-crystalline form of risedronate sodium was obtained, which was characterized with X-ray powder diffraction (FIG. 9), ^13C and ^31P Cp MAS NMR spectra (FIGS. 7 and 8) and IR spectra (FIG. 6). Thus prepared semi-crystalline risedronate contained 1.7% of water. After one month storage on the open air at laboratory temperature the content of water increased to 3%.

physchem = conditions: 22 °C, water, thermodynamic from solid

In the case of `O.O.O.O.O.O=P([O-])(O)C(O)(Cc1cccnc1)P(=O)(O)O.O=P([O-])(O)C(O)(Cc1cccnc1)P(=O)(O)O.[Na+].[Na+]` [sodium risedronate pentahemihydrate, reference compound], the “time until a transparent solution was formed” value [1] is reported as no more than 30 s, the “time after formation of the transparent solution until a white suspension of poorly soluble risedronic acid started to precipitate” value ([1]; pH 1.1) is reported as no more than 20 s and the “total consumption of water for dissolution of the sample” value [2] is reported as 3.5 mL.
With `O=P(O)(O)C(O)(Cc1cccnc1)P(=O)(O)O` [Example 2, monosodium salt of 3-pyridyl-1-hydroxyethylidene-1,1-bisphosphonic acid] the “time until a transparent solution was formed” value [1] was “less than 30 seconds”, the “precipitation on further stirring under constant conditions” value ([1]; aqueous hydrochloric acid pH 1.1, 40° C., stirred for further 15 mins) was “without any observable precipitation” and the “content of water after storage” value [3] was 3%. For the same compound, the “total consumption of water for dissolution of the sample” value [2] was 2.5 mL and the solubility (physchem) was 255 mM.
